From patent US20260102503A1, “NANOCOMPOSITES FOR ENHANCED CELLULAR PAYLOAD DELIVERY” (priority 2022, published 2026)
≈ marks a conversion by molar mass, not a printed value.

Key:
Format in all cases: cell-based
AT1 cells = test: Nanocomposite cellular uptake mechanism study (endocytosis inhibitors, temperature block); conditions: 5 μM, 2 hours pretreatment, vs untreated cells
Description: To determine the NC/NP uptake mechanism used by cells, an endocytosis-inhibition examination was performed. Alveolar Type 1 cells were seeded at confluency in 48-well plates and attached overnight at 37° C. in an incubator with 5% CO2. Rhodamine B-loaded nanocomposites were prepared using a similar procedure done for other studies. After 24 hours of seeding, the AT1 cell culture medium was replaced by fresh 1% serum media containing 5 μM of Amiloride, 5 μM of methyl-β-cyclodextran, 5 μg/mL of Filipin III, 5 μM of Cytochalasin-D, 5 μM of Imipramine, 80 μM Dynasore, or 5 mM of Deoxy-glucose (Sigma Aldrich & Cayman Chemical). After 2 hours, fresh complete media with Rho B-labeled nanocomposites at a concentration of 0.5 mg/mL was added. […] Images were acquired using a fluorescent microscope and processed for NP uptake in random areas using 10 images from each inhibitor group with the ImageJ software.
In a similar fashion, to check if the nanocomposites undergo an energy-dependent uptake, temperature block was studied in AT1 cells by preincubating cells at 4° C. for 30 minutes, followed by treatment with fluorescent nanocomposites for 90 minutes at 4° C. Later, fluorescent images were acquired, and the cell lysates were analyzed for quantitative nanocomposite uptake.

[1] = system: primary alveolar type I epithelial cells (AT1); test: Cytocompatibility (MTS) in AT1 cells; conditions: 72 hours, 0.0625-1 mg/mL, vs untreated control
Description: Primary lung epithelial cells, RAW macrophages, and HUVECs were used to assess toxicity of the nanocomposites. Nanocomposites were prepared as described in for AT1 cells, in which 20,000 cells/well of primary alveolar type I epithelial cells (AT1) were seeded in 48-well plates. After the overnight culture, various groups of particles including blank PLGA NPs, nanofibers only, and nanocomposites (nanofiber coated-PLGA nanoparticles) were given to the cells in triplicate at various concentrations ranging from 0.0625-1 mg/mL. The nanofiber concentration chosen was equivalent to the peptide amount conjugated onto the nanoparticles. After 72 hours, the cells were washed 3 times with PBS, and MTS reagent was applied to the cells to assess the cell viability following the company's instructions.
In this study, primary lung epithelial cells and kidney epithelial cells (Vero E6) were used to assess toxicity from NPs. NF-coated NPs were prepared as described above, in which 4000 cells/well of primary alveolar type I epithelial cells (AT1 cells) and Vero E6 cells were seeded in 96-well plates. After overnight culturing, RDV NCs were added to the cells in triplicate at various concentrations ranging from 0 to 1 mg/mL. An NF to NP ratio of 0.25 was used for the study. […]

MRSA = test: microbe, parasite or virus in culture; conditions: Staphylococcus aureus, 24 h

In the case of `C=C1[C@@H](C)[C@H]2[C@H](Cc3ccccc3)NC(=O)[C@]23[C@H](OC(C)=O)/C=C/[C@@](C)(O)C(=O)[C@@H](C)C/C=C/[C@H]3[C@@H]1O` [cytochalasin-D], the “effect of endocytosis inhibitor on cellular uptake of NCs” value (AT1 cells) is reported as “significant reduction in cellular uptake”.
In the case of “Ac-KKKKKKKKKKQWQWQWQWQWQWEEE-NH2 [NFs, K10(QW)6E3]”, the “cytocompatibility (cell viability, MTS)” value [1] is reported as “significant toxicity with concentrations ranging from 0.25-1 mg/mL”.
In the case of `CN[C@H](CC(C)C)C(=O)N[C@H]1C(=O)N[C@@H](CC(N)=O)C(=O)N[C@H]2C(=O)N[C@H]3C(=O)N[C@H](C(=O)N[C@H](C(=O)O)c4cc(O)cc(O)c4-c4cc3ccc4O)[C@H](O)c3ccc(c(Cl)c3)Oc3cc2cc(c3O[C@@H]2O[C@H](CO)[C@@H](O)[C@H](O)[C@H]2O[C@H]2C[C@](C)(N)[C@H](O)[C@H](C)O2)Oc2ccc(cc2Cl)[C@H]1O` [free vancomycin, vancomycin], the MIC (MRSA) is reported as 2 µg/mL (≈ 1.38 µM).
